Reference: patent US20120088663A1, “Triazole Compounds Carrying a Sulfur Substituent” (BASF SE, priority 2009, published 2012)

Test: not given

SMILES	melting point
CC1COC(Cn2cncn2)(c2ccc(Oc3ccc(Cl)cc3F)cc2)O1 (stereo not drawn) [Example 3, 1-{2-[4-(4-Chloro-2-fluoro-phenoxy)-phenyl]-4-methyl-[1,3]dioxolan-2-ylmethyl}-1H-[1,2,4]triazole]	113 to 115 °C
CC1COC(Cn2cncn2)(c2ccc(Oc3ccc(F)cc3F)cc2)O1 (stereo not drawn) [Example 4, 1-{2-[4-(2,4-Difluoro-phenoxy)-phenyl]-4-methyl-[1,3]dioxolan-2-ylmethyl}-1H-[1,2,4]triazole]	83 to 86 °C
CCC1COC(Cn2cncn2)(c2ccc(Oc3ccc(F)cc3F)cc2)O1 (stereo not drawn) [Example 5, 1-{2-[4-(2,4-Difluoro-phenoxy)-phenyl]-4-ethyl-[1,3]dioxolan-2-ylmethyl}-1H-[1,2,4]triazole]	112 to 114 °C
CC1COC(Cn2cncn2)(c2ccc(Oc3c(F)cccc3Cl)cc2)O1 (stereo not drawn) [Example 6, 1-{2-[4-(6-Chloro-2-fluoro-phenoxy)-phenyl]-4-methyl-[1,3]dioxolan-2-ylmethyl}-1H-[1,2,4]triazole]	112 to 114 °C
CCC1COC(Cn2cncn2)(c2ccc(Oc3c(F)cccc3F)cc2)O1 (stereo not drawn) [Example 9, 1-{2-[4-(2,6-Difluoro-phenoxy)-phenyl]-4-ethyl-[1,3]dioxolan-2-ylmethyl}-1H-[1,2,4]triazole]	90 to 95 °C
CC1COC(Cn2cncn2)(c2ccc(Oc3cc(F)ccc3F)cc2Cl)O1 (stereo not drawn) [Example 26, 1-{2-[2-Chloro-4-(2,5-difluoro-phenoxy)-phenyl]-4-methyl-[1,3]dioxolan-2-ylmethyl}-1H-[1,2,4]triazole]	119.9 °C
CC1COC(Cn2cncn2)(c2ccc(Oc3ccccc3)c(F)c2)O1 (stereo not drawn) [Example 35, 1-{2-[3-Fluoro-4-phenoxy-phenyl]-4-methyl-[1,3]dioxolan-2-ylmethyl}-1H-[1,2,4]triazole]	108 to 110 °C
CC1COC(Cn2cncn2)(c2cc(F)c(Oc3ccc(Cl)cc3)cc2F)O1 (stereo not drawn) [Example 37, 1-{2-[4-(4-Chloro-phenoxy)-2,5-difluoro-phenyl]-4-methyl-[1,3]dioxolan-2-ylmethyl}-1H-[1,2,4]triazole]	86 to 88 °C
CC1COC(Cn2cncn2)(c2cc(F)c(Oc3ccccc3)cc2F)O1 (stereo not drawn) [Example 40, 1-{2-[3,6-Difluoro-4-phenoxy-phenyl]-4-methyl-[1,3]dioxolan-2-ylmethyl}-1H-[1,2,4]triazole]	102 to 104 °C
CCCC1COC(Cn2ncnc2S)(c2ccc(Oc3ccc(Cl)cc3)cc2Cl)O1 (stereo not drawn) [Example 65, 2-{2-[2-Chloro-4-(4-chloro-phenoxy)-phenyl]-4-propyl-[1,3]dioxolan-2-yl-methyl}-2H-[1,2,4]triazole-3-thiol]	105 to 106 °C
COCC1COC(Cn2ncnc2S)(c2ccc(Oc3ccc(Cl)cc3)cc2Cl)O1 (stereo not drawn) [Example 66, 2-{2-[2-Chloro-4-(4-chloro-phenoxy)-phenyl]-4-methoxymethyl-[1,3]dioxolan-2-ylmethyl}-2H-[1,2,4]triazole-3-thiol]	153 to 155 °C
CC1COC(Cn2ncnc2S)(c2ccc(Oc3ccccc3)c(F)c2)O1 (stereo not drawn) [Example 67, 2-{2-[3-Fluoro-4-phenoxy-phenyl]-4-methyl-[1,3]dioxolan-2-yl-methyl}-2H-[1,2,4]triazole-3-thiol]	62 to 64 °C
CC1COC(Cn2ncnc2S)(c2cc(F)c(Oc3ccccc3)c(F)c2)O1 (stereo not drawn) [Example 68, 2-{2-[3,5-Difluoro-4-phenoxy-phenyl]-4-methyl-[1,3]dioxolan-2-yl-methyl}-2H-[1,2,4]triazole-3-thiol]	139 to 141 °C

Test: Log P, partition coefficient between water and octanol
Assay type: physicochemical
From the text: Log P is the partition coefficient between water and octanol.

SMILES	logP
CC1COC(Cn2cncn2)(c2ccc(Oc3ccc(Cl)cc3)c(F)c2)O1 (stereo not drawn) [Example 32, 1-{2-[4-(4-Chloro-phenoxy)-3-fluoro-phenyl]-4-methyl-[1,3]dioxolan-2-ylmethyl}-1H-[1,2,4]triazole]	4.2
CCC1COC(Cn2cncn2)(c2ccc(Oc3ccc(Cl)cc3)cc2Cl)O1 (stereo not drawn) [Example 38, 1-{2-[2-Chloro-4-(4-chloro-phenoxy)-phenyl]-4-ethyl-[1,3]dioxolan-2-ylmethyl}-1H-[1,2,4]triazole]	5
CCCC1COC(Cn2cncn2)(c2ccc(Oc3ccc(Cl)cc3)cc2Cl)O1 (stereo not drawn) [Example 39, 1-{2-[2-Chloro-4-(4-chloro-phenoxy)-phenyl]-4-propyl-[1,3]dioxolan-2-ylmethyl}-1H-[1,2,4]triazole]	5.4
CC1COC(Cn2cncn2)(c2cc(F)c(Oc3ccccc3)c(F)c2)O1 (stereo not drawn) [Example 41, 1-{2-[3,5-Difluoro-4-phenoxy-phenyl]-4-methyl-[1,3]dioxolan-2-ylmethyl}-1H-[1,2,4]triazole]	3.7
CC1COC(Cn2ncnc2S)(c2cc(F)c(Oc3ccc(Cl)cc3)cc2F)O1 (stereo not drawn) [Example 63, 2-{2-[4-(4-Chloro-phenoxy)-2,5-difluoro-phenyl]-4-methyl-[1,3]dioxolan-2-ylmethyl}-2H-[1,2,4]triazole-3-thiol]	3.2
CC1COC(Cn2ncnc2S)(c2cc(F)c(Oc3ccccc3)cc2F)O1 (stereo not drawn) [Example 64, 2-{2-[2,5-Difluoro-4-phenoxy-phenyl]-4-methyl-[1,3]dioxolan-2-yl-methyl}-2H-[1,2,4]triazole-3-thiol]	2.9
CC1COC(Cn2ncnc2S)(c2ccc(Oc3ccc(Cl)cc3)c(F)c2)O1 (stereo not drawn) [Example 69, 2-{2-[4-(4-Chloro-phenoxy)-3-fluoro-phenyl]-4-methyl-[1,3]dioxolan-2-yl-methyl}-2H-[1,2,4]triazole-3-thiol]	3.6
CC1COC(Cn2ncnc2S)(c2ccc(Oc3ccc(Cl)cc3)cc2F)O1 (stereo not drawn) [Example 70, 2-{2-[4-(4-Chloro-phenoxy)-2-fluoro-phenyl]-4-methyl-[1,3]dioxolan-2-yl-methyl}-2H-[1,2,4]triazole-3-thiol]	3.5
